Usually EC50 stands for the concentration needed to bring the measured effect to its halfway point. As usually defined, the IC50 is the midpoint of a concentration-inhibition curve.

The values below come from ChEMBL document CHEMBL5107986, “Small molecule NS5B RdRp non-nucleoside inhibitors for the treatment of HCV infection: A medicinal chemistry perspective” (Eur J Med Chem, 2022).

What all share (type): functional, organism-based, Hepacivirus hominis
Assay [1] has as its system Hepatitis C virus. Put plainly: Antiviral activity against intrinsic HCV GT1a assessed as reduction in viral replication.
In assay [2] the test system is Hepatitis C virus. Put plainly: Antiviral activity against HCV GT1b assessed as inhibition of viral replication.
Assay [3] deals with Hepatitis C virus. Kind of assay: Antiviral activity against HCV GT1b assessed as reduction in viral replication.
Assay [4] relates to Hepatitis C virus. Kind of assay: Antiviral activity against HCV GT1b C316Y assessed as reduction in viral replication.
The subject of assay [5] is Hepatitis C virus. Put plainly: Antiviral activity against HCV GT1b 316N assessed as reduction in viral replication.
Assay [6] deals with Hepatitis C virus. Kind of assay: Antiviral activity against intrinsic HCV GT2a assessed as reduction in viral replication.

Each structure is given as a SMILES string.

For `CC(C)N(c1cc(C#CC(C)(C)C)sc1C(=O)O)C(=O)[C@H]1CC[C@H](C)CC1`, in the assay with Hepatitis C virus [1], the EC50 came out at 5.5 nM.
As to `COc1ccc2c(c1)C=C1Cn3c-2c(C2CCCCC2)c2ccc(cc23)C(=O)NS(=O)(=O)N(C)CCCCN(C)C1=O`, the IC50 with Hepatitis C virus [2] stood at 26 nM. Moreover, the EC50 in the assay on Hepatitis C virus [3] came to 75 nM.
Turning to `O=C1N/C(=N\c2nnc(-c3ccc(Cl)cc3)s2)S/C1=C\c1c(Cl)cccc1Cl`, the IC50 in the assay on Hepatitis C virus [2] worked out at 5600 nM.
`O=C1N/C(=N\c2nnc(-c3ccc(F)cc3)s2)S/C1=C\c1c(Cl)cccc1Cl`: the IC50 in the assay on Hepatitis C virus [2] came to 19800 nM.
As for `CNC(=O)c1c(-c2ccc(F)cc2)oc2cc(N(Cc3ccc(B(O)O)c(F)c3)S(C)(=O)=O)c(C3CC3)cc12`, the EC50 in the assay with Hepatitis C virus [4] amounted to 1.9 nM; in the assay on Hepatitis C virus [3] it was 1.7 nM.
Take `CC(C)(C)C#Cc1cc(N(C(=O)[C@H]2CC[C@H](C)CC2)[C@H]2CC[C@H](Oc3cccnc3)CC2)c(C(=O)O)s1`: the EC50 in the assay on Hepatitis C virus [1] was determined as 3.6 nM.
The same measure, in the same setting: under `CC(C)(C)C#Cc1cc(N(C(=O)[C@H]2CC[C@H](C)CC2)[C@H]2CC[C@H](OC3CCOC3)CC2)c(C(=O)O)s1` (stereo partly specified) stands 8.1 nM; under `CC(C)(C)C#Cc1cc(N(C(=O)[C@H]2CC[C@H](C)CC2)[C@H]2CC[C@](O)(CO[C@H]3CCOC3)CC2)c(C(=O)O)s1`, 2.2 nM.
As for `CC1=CC[C@H](C(=O)N(c2cc(C#CC(C)(C)C)sc2C(=O)O)C(C)C)CC1`, the EC50 with Hepatitis C virus [1] stood at 2.2 nM.
For `CNC(=O)c1c(-c2ccc(F)cc2)oc2cc(N(c3cc(Cl)c4c(c3)COB4O)S(C)(=O)=O)c(C3CC3)cc12`, the EC50 in the assay on Hepatitis C virus [5] came to 2.5 nM; in the assay with Hepatitis C virus [1], 1.3 nM; in the assay on Hepatitis C virus [3], 2.5 nM.
Take `CNC(=O)c1c(-c2ccc(F)cc2)oc2cc(N(C)S(C)(=O)=O)c(-c3cccc(CNS(=O)(=O)c4cccc(OC)c4)c3)cc12`: the results for the 50% effective concentration (EC50) in the assay on Hepatitis C virus [6] and in the assay with Hepatitis C virus [3] were 6 nM and 1 nM, respectively.
In the case of `CNC(=O)c1c(-c2ccc(F)cc2)oc2cc(N(C)S(C)(=O)=O)c(-c3ccc(OC)c(-c4nc5c(F)cccc5o4)c3)cc12`, the EC50 in the assay with Hepatitis C virus [4] came out at 9.2 nM; in the assay on Hepatitis C virus [3], 3.1 nM.
Take `CNC(=O)c1c(-c2ccc(F)cc2)oc2cc(N(C)S(C)(=O)=O)c(-c3ccccc3)cc12`: the EC50 in the assay on Hepatitis C virus [3] turned out to be 120 nM.
Turning to `CNC(=O)c1c(-c2ccc(F)cc2)oc2cc(N(C)S(C)(=O)=O)c(-c3ccc(OC)cc3)cc12`, the EC50 with Hepatitis C virus [6] is 60 nM; in the assay with Hepatitis C virus [3], 16 nM.
As for `CNC(=O)c1c(-c2ccc(F)cc2)oc2cc(N(CCO)S(C)(=O)=O)c(-c3ccccc3)cc12`, in the assay on Hepatitis C virus [3], the EC50 turned out to be 62 nM.
`Cn1c(-c2ncc(Br)cn2)c(C2CCCC2)c2ccc(C(=O)NC3(c4nc5ccc(/C=C/C(=O)O)cc5[nH]4)CCC3)cc21`: the concentration for half-maximal inhibition (IC50) with Hepatitis C virus [2] was 50 nM. Besides, in the assay on Hepatitis C virus [3], the EC50 was 11 nM.
As for `CNC(=O)c1c(-c2ccc(F)cc2)oc2cc(N(C)S(C)(=O)=O)c(-c3ccc4c(n3)-c3cc5c(F)cccc5n3CO4)cc12` [MK-8876], the EC50 came to 7.3 nM in the assay with Hepatitis C virus [4], 2.7 nM in the assay with Hepatitis C virus [6] and 2.2 nM with Hepatitis C virus [3].
On to `CNC(=O)c1c(-c2ccc(F)cc2)oc2cc(N(CCO)S(C)(=O)=O)c(C3CC3)cc12` [NESBUVIR], for which the EC50 in the assay on Hepatitis C virus [5] was 170 nM; with Hepatitis C virus [3] it was 18 nM.
Take `CC1=CC[C@H](C(=O)N(c2cc(C#CC(C)(C)C)sc2C(=O)O)[C@H]2CC[C@](O)(CO[C@H]3CCOC3)CC2)CC1` [RADALBUVIR]: the values for the half-maximal effective concentration (EC50) in the assay on Hepatitis C virus [1] and with Hepatitis C virus [3] were 2.9 nM and 6 nM, respectively.
